The record followed here is BindingDB's records for doi:10.1016/j.bmcl.2021.128353 (Novira Therapeutics, 2021).

The term EC50 denotes the midpoint of the concentration-response curve.

A short description of the assay: Modulation of capsid assembly in HBV infected in human HepG2.2.15 cells assessed as inhibition of viral DNA replication preincubated for 3 days followed by replacement with fresh medium containing compound and measured after 3 days by QuantiGene assay.
In the case of `CCOC(=O)c1n[nH]c2c1CN(C(=O)Nc1cccc(Cl)c1)CC2`, the EC50 stood at 260 nM.

`CCN(C)C(=O)c1n[nH]c2c1CN(C(=O)Nc1cccc(Cl)c1)CC2`: the concentration giving a half-maximal response (EC50) is 410 nM.

For the compound `CONC(=O)c1n[nH]c2c1CN(C(=O)Nc1cccc(Cl)c1)CC2`, the EC50 is 400 nM.

`O=C(Nc1cccc(Cl)c1)N1CCc2[nH]nc(C(=O)N3CCCCO3)c2C1`: the EC50 was 100 nM.

Take `CN(OC1COC1)C(=O)c1n[nH]c2c1CN(C(=O)Nc1cccc(Cl)c1)CC2`: the EC50 worked out at 24 nM.

In the case of `CN(OC1CCCOC1)C(=O)c1n[nH]c2c1CN(C(=O)Nc1cccc(Cl)c1)CC2` (centres undefined), the EC50 turned out to be 370 nM.

As for `C[C@@H]1Cc2nn3c(c2CN1C(=O)Nc1ccc(F)c(Cl)c1)C(=O)N(C)O[C@@H](CO)C3`, the EC50 stood at 4 nM.

Turning to `C[C@@H]1Cc2nn3c(c2CN1C(=O)Nc1ccc(F)c(C(F)(F)F)c1)C(=O)N(C)O[C@@H](CO)C3`, the EC50 was determined as 2.7 nM.

`Cc1cc(NC(=O)N2Cc3c(nn4c3C(=O)N(C)O[C@@H](CO)C4)C[C@H]2C)ccc1F`: the concentration for a half-maximal effect (EC50) came to 3.4 nM.

As to `C[C@@H]1Cc2nn3c(c2CN1C(=O)Nc1ccc(F)c(C#N)c1)C(=O)N(C)O[C@@H](CO)C3`, the half-maximal effective concentration (EC50) was found to be 7.3 nM.

On to `C[C@@H]1Cc2nn3c(c2CN1C(=O)Nc1ccc(F)c(C#N)c1)C(=O)N(C)OCC3`, for which the concentration for a half-maximal effect (EC50) came to 5.3 nM.

As for `C[C@@H]1Cc2nn3c(c2CN1C(=O)Nc1ccc(F)c(Cl)c1)C(=O)N(C)O[C@@H](CN(C)C)C3`, the EC50 was 21 nM.

Turning to `C[C@@H]1Cc2nn3c(c2CN1C(=O)Nc1ccc(F)c(C#N)c1)C(=O)N(C)O[C@@H](C(=O)N(C)CC(F)F)C3`, the EC50 was 5.3 nM.

For the compound `C[C@@H]1Cc2nn3c(c2CN1C(=O)Nc1ccc(F)c(C#N)c1)C(=O)N(C)O[C@@H](COCC(F)F)C3`, the EC50 is 5 nM.

For `C[C@@H]1Cc2nn3c(c2CN1C(=O)Nc1ccc(F)c(C#N)c1)C(=O)N(C)O[C@@H](CF)C3`, the concentration for a half-maximal effect (EC50) came to 6 nM.

Regarding `CN1O[C@@H](CO)Cn2nc3c(c2C1=O)CN(C(=O)Nc1ccc(F)c(Cl)c1)CC3`, the EC50 turned out to be 4 nM.

In the case of `CN1O[C@H](CO)Cn2nc3c(c2C1=O)CN(C(=O)Nc1ccc(F)c(Cl)c1)CC3`, the EC50 amounted to 15 nM.

For `CON(C)C(=O)c1n[nH]c2c1CN(C(=O)Nc1cccc(Cl)c1)[C@@H](C)C2`, the EC50 turned out to be 31 nM.

In the case of `CON(C)C(=O)c1n[nH]c2c1CN(C(=O)Nc1cccc(Cl)c1)[C@H](C)C2`, the half-maximal effective concentration (EC50) is 330 nM.

On to `C[C@@H]1Cc2nn3c(c2CN1C(=O)Nc1ccc(F)c(Cl)c1)C(=O)N(C)O[C@H](CO)C3`, for which the EC50 is 4 nM.

Turning to `C[C@H]1Cc2nn3c(c2CN1C(=O)Nc1ccc(F)c(Cl)c1)C(=O)N(C)O[C@H](CO)C3`, the EC50 is 216 nM.

On to `C[C@H]1Cc2nn3c(c2CN1C(=O)Nc1ccc(F)c(Cl)c1)C(=O)N(C)O[C@@H](CO)C3`, for which the EC50 came out at 54 nM.

In the case of `CON(C)C(=O)c1n[nH]c2c1CN(C(=O)Nc1cccc(Cl)c1)CC2` [US10189835, Compound 434], the EC50 turned out to be 54 nM.

As for `CCCC(=O)c1n[nH]c2c1CN(C(=O)Nc1cccc(Cl)c1)CC2` [US10189835, Compound 561], the EC50 was found to be 68 nM.

For `CCN(OC)C(=O)c1n[nH]c2c1CN(C(=O)Nc1cccc(Cl)c1)CC2` [US10189835, Compound 594], the half-maximal effective concentration (EC50) stood at 90 nM.

Regarding `CON(C(=O)c1n[nH]c2c1CN(C(=O)Nc1cccc(Cl)c1)CC2)C(C)C` [US10189835, Compound 595], the concentration for a half-maximal effect (EC50) was found to be 210 nM.

For `CCON(C)C(=O)c1n[nH]c2c1CN(C(=O)Nc1cccc(Cl)c1)CC2` [US10189835, Compound 599], the EC50 turned out to be 63 nM.

`CC(C)ON(C)C(=O)c1n[nH]c2c1CN(C(=O)Nc1cccc(Cl)c1)CC2` [US10189835, Compound 600]: the EC50 came to 57 nM.

As for `O=C(Nc1cccc(Cl)c1)N1CCc2[nH]nc(C(=O)N3CCCO3)c2C1` [US10189835, Compound 699], the EC50 is 120 nM.

On to `CCCON(C)C(=O)c1n[nH]c2c1CN(C(=O)Nc1cccc(Cl)c1)CC2` [US10189835, Compound 795], for which the concentration giving a half-maximal response (EC50) was found to be 210 nM.

For the compound `CN(OCCO)C(=O)c1n[nH]c2c1CN(C(=O)Nc1cccc(Cl)c1)CC2` [US10189835, Compound 796], the EC50 was determined as 155 nM.

With `CN(OC1CCC1)C(=O)c1n[nH]c2c1CN(C(=O)Nc1cccc(Cl)c1)CC2` [US10189835, Compound 805], the EC50 was 97 nM.

Regarding `CN(OC1CCOC1)C(=O)c1n[nH]c2c1CN(C(=O)Nc1cccc(Cl)c1)CC2` (centres undefined) [US10189835, Compound 910], the EC50 was 300 nM.

For `CN1CC(ON(C)C(=O)c2n[nH]c3c2CN(C(=O)Nc2cccc(Cl)c2)CC3)C1` [US10189835, Compound 912], the EC50 was determined as 200 nM.
